Laboratory results reported in ChEMBL document CHEMBL5352410, “Discovery of novel selenium-containing azole derivatives as antifungal agents by exploiting the hydrophobic cleft of CYP51” (Eur J Med Chem, 2022).
Values after ≈ are worked out from the molar mass of the structure shown.

Key:
[1] = Subacute toxicity in water diet-fed Kunming mouse assessed as adverse reactions at 100 to 200 mg/kg, IG measured for 48 hrs; format: organism-based; conditions: in vivo, po, dose 100-200 mg/kg
[2] = Subacute toxicity in water diet-fed Kunming mouse assessed as focal necrosis in liver at 100 to 200 mg/kg, IG measured after 7 to 14 days by microscopic analysis; format: organism-based; conditions: in vivo, po, dose lower 100 mg/kg, time lower 7 day, dose upper 200 mg/kg, time upper 14 day
[3] = biological target: T1, Lanosterol 14-alpha demethylase (Candida albicans (strain SC5314 / ATCC MYA-2876) (Yeast), UniProt P10613); experiment: Inhibition of CYP51 of Candida albicans ATCC SC5314 assessed as increase in eburicol level at 4 ug/ml incubated for 16 hrs by GC-MS analysis (reference value: 0 %); design: scale not given: the % may be the effect or the level left; conditions: at 4 µg/mL
[4] = test system: Candida albicans; experiment: Antibiofilm activity against Candida albicans CPCC400616 assessed as sessile minimum inhibitory concentration measured after 24 hrs by XTT assay; format: functional
[5] = Metabolic stability in mouse liver microsome assessed as half life; format: ADME; conditions: liver microsomes
[6] = test system: Candida albicans; experiment: Antifungal activity against FCZ-resistant Candida albicans 17# by CLSI based broth microdilution method; format: functional
[7] = Subacute toxicity in water diet-fed Kunming mouse assessed as liver edema at 100 to 200 mg/kg, IG measured after 7 to 14 days by microscopic analysis; format: organism-based; conditions: in vivo, po, dose lower 100 mg/kg, time lower 7 day, dose upper 200 mg/kg, time upper 14 day
[8] = biological target: T1, Lanosterol 14-alpha demethylase; experiment: Inhibition of CYP51 of Candida albicans ATCC SC5314 assessed as increase in eburicol level at 1 ug/ml incubated for 16 hrs by GC-MS analysis (reference value: 0 %); design: scale not given: the % may be the effect or the level left; conditions: at 1 µg/mL
[9] = biological target: T1, Lanosterol 14-alpha demethylase; experiment: Inhibition of CYP51 of Candida albicans ATCC SC5314 assessed as increase in lanosterol level at 4 ug/ml incubated for 16 hrs by GC-MS analysis (reference value: 1.7 %); design: scale not given: the % may be the effect or the level left; conditions: at 4 µg/mL
[10] = test system: Candida albicans; experiment: Antifungal activity against FCZ-resistant Candida albicans 632 by CLSI based broth microdilution method; format: functional
[11] = biological target: T1, Lanosterol 14-alpha demethylase; experiment: Inhibition of CYP51 of Candida albicans ATCC SC5314 assessed as increase in obtusifoliol level at 2 ug/ml incubated for 16 hrs by GC-MS analysis (reference value: 0 %); design: scale not given: the % may be the effect or the level left; conditions: at 2 µg/mL
[12] = test system: Candida albicans; experiment: Antibiofilm activity against Candida albicans SC5314 assessed as sessile minimum inhibitory concentration measured after 6 hrs by XTT assay; format: functional
[13] = biological target: T1, Lanosterol 14-alpha demethylase; experiment: Inhibition of CYP51 of Candida albicans ATCC SC5314 assessed as increase in obtusifoliol level at 1 ug/ml incubated for 16 hrs by GC-MS analysis (reference value: 0 %); design: scale not given: the % may be the effect or the level left; conditions: at 1 µg/mL
[14] = test system: Candida albicans; experiment: Fungicidal activity against FCZ-resistant Candida albicans 904; format: functional
[15] = Cytotoxicity against human MDA-MB-231 cells by MTT assay; format: toxicity, cell-based
[16] = test system: Candida albicans; experiment: Antifungal activity against FCZ-resistant Candida albicans 904 by CLSI based broth microdilution method; format: functional
[17] = test system: Candida albicans; experiment: Antibiofilm activity against Candida albicans CPCC400616 assessed as sessile minimum inhibitory concentration measured after 3 hrs by XTT assay; format: functional
[18] = biological target: T1, Lanosterol 14-alpha demethylase; experiment: Inhibition of CYP51 of Candida albicans ATCC SC5314 assessed as increase in obtusifoliol level at 8 ug/ml incubated for 16 hrs by GC-MS analysis (reference value: 0 %); design: scale not given: the % may be the effect or the level left; conditions: at 8 µg/mL
[19] = test system: Candida albicans; experiment: Fungicidal activity against FCZ-resistant Candida albicans CaR; format: functional
[20] = Cytotoxicity against human HL-60 cells by MTT assay; format: toxicity, cell-based
[21] = Metabolic stability in mouse liver microsome assessed as clearance; format: ADME; conditions: liver microsomes, read-out: CLH
[22] = biological target: T1, Lanosterol 14-alpha demethylase; experiment: Inhibition of CYP51 of Candida albicans ATCC SC5314 assessed as increase in eburicol level at 8 ug/ml incubated for 16 hrs by GC-MS analysis (reference value: 0 %); design: scale not given: the % may be the effect or the level left; conditions: at 8 µg/mL
[23] = Subacute toxicity in water diet-fed Kunming mouse assessed as lesions in kidney at 100 to 200 mg/kg, IG measured after 8 to 15 days; format: organism-based; conditions: in vivo, po, dose lower 100 mg/kg, time lower 8 day, dose upper 200 mg/kg, time upper 15 day
[24] = test system: Candida albicans; experiment: Fungicidal activity against Candida albicans; format: functional
[25] = biological target: T1, Lanosterol 14-alpha demethylase; experiment: Inhibition of CYP51 of Candida albicans ATCC SC5314 assessed as decrease in ergosterol level by measuring residual activity at 1 ug/ml incubated for 16 hrs by GC-MS analysis (reference value: 98.3 %); conditions: at 1 µg/mL
[26] = Acute toxicity in water diet-fed Kunming mouse assessed as change in body weight at 500 mg/kg, IG measured for 7 days; format: organism-based; conditions: in vivo, po, 168 h, time 7 day
[27] = Acute toxicity in water diet-fed Kunming mouse assessed as animal death at 500 mg/kg, IG measured for 7 days; format: organism-based; conditions: in vivo, po, 168 h, time 7 day
[28] = biological target: T1, Lanosterol 14-alpha demethylase; experiment: Inhibition of CYP51 of Candida albicans ATCC SC5314 assessed as increase in lanosterol level at 8 ug/ml incubated for 16 hrs by GC-MS analysis (reference value: 1.7 %); design: scale not given: the % may be the effect or the level left; conditions: at 8 µg/mL
[29] = test system: Candida albicans; experiment: Fungicidal activity against FCZ-resistant Candida albicans 632; format: functional
[30] = test system: Candida albicans; experiment: Antibiofilm activity against Candida albicans CPCC400616 assessed as sessile minimum inhibitory concentration measured after 1.5 hrs by XTT assay; format: functional
[31] = test system: Candida albicans; experiment: Antibiofilm activity against Candida albicans SC5314 assessed as sessile minimum inhibitory concentration measured after 3 hrs by XTT assay; format: functional
[32] = biological target: T1, Lanosterol 14-alpha demethylase; experiment: Inhibition of CYP51 of Candida albicans ATCC SC5314 assessed as decrease in ergosterol level by measuring residual activity at 2 ug/ml incubated for 16 hrs by GC-MS analysis (reference value: 98.3 %); conditions: at 2 µg/mL
[33] = test system: Candida albicans; experiment: Antifungal activity against FCZ-resistant Candida albicans 901 by CLSI based broth microdilution method; format: functional
[34] = test system: Candida albicans; experiment: Antibiofilm activity against Candida albicans SC5314 assessed as sessile minimum inhibitory concentration measured after 24 hrs by XTT assay; format: functional
[35] = biological target: T1, Lanosterol 14-alpha demethylase; experiment: Inhibition of CYP51 of Candida albicans ATCC SC5314 assessed as decrease in ergosterol level by measuring residual activity at 4 ug/ml incubated for 16 hrs by GC-MS analysis (reference value: 98.3 %); conditions: at 4 µg/mL
[36] = test system: Candida albicans; experiment: Antifungal activity against FCZ-resistant Candida albicans CaR by CLSI based broth microdilution method; format: functional
[37] = test system: Candida albicans; experiment: Fungicidal activity against Candida albicans sc5314; format: functional
[38] = test system: Candida albicans; experiment: Antibiofilm activity against Candida albicans SC5314 assessed as sessile minimum inhibitory concentration measured after 1.5 hrs by XTT assay; format: functional
[39] = biological target: T1, Lanosterol 14-alpha demethylase; experiment: Inhibition of CYP51 of Candida albicans ATCC SC5314 assessed as increase in lanosterol level at 1 ug/ml incubated for 16 hrs by GC-MS analysis (reference value: 1.7 %); design: scale not given: the % may be the effect or the level left; conditions: at 1 µg/mL
[40] = biological target: T1, Lanosterol 14-alpha demethylase; experiment: Inhibition of CYP51 of Candida albicans ATCC SC5314 assessed as decrease in ergosterol level by measuring residual activity at 8 ug/ml incubated for 16 hrs by GC-MS analysis (reference value: 98.3 %); conditions: at 8 µg/mL

T1 sequence (P10613 whole entry): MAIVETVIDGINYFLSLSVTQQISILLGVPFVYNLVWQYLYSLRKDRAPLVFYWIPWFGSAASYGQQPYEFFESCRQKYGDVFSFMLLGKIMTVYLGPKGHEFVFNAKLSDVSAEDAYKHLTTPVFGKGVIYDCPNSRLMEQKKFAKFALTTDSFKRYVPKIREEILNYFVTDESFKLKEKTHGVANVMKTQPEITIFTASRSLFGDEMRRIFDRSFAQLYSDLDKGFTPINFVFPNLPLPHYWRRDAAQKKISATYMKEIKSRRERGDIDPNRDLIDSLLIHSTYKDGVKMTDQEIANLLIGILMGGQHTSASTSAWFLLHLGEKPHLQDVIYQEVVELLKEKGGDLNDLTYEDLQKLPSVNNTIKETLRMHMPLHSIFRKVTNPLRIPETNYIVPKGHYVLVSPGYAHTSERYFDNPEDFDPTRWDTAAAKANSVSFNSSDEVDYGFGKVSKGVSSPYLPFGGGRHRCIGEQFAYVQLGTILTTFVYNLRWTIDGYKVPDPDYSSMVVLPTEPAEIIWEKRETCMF

In the case of `Clc1ccc(C(Cn2ccnc2)[Se][Se]C(Cn2ccnc2)c2ccc(Cl)cc2Cl)c(Cl)c1` (configuration not stated), the Activity [1] is reported as “Non-Toxic”, the Activity [2] is reported as “Toxic” and the Activity [3] is reported as 69.5%. The MIC50 [4] was 4 µg/mL (≈ 6.27 µM), the MIC80 [4] was 4 µg/mL (≈ 6.27 µM) and the half-life [5] was 41.1 min. For the same compound, the MIC [6] was 8 µg/mL (≈ 12.5 µM), the Activity [7] was “Toxic” and the Activity [8] was 60.8%. It also gave an Activity [9] of 14.2%, an MIC [10] of 4 µg/mL (≈ 6.27 µM) and an Activity [11] of 12.2%. The MIC50 [12] was 0.5 µg/mL (≈ 0.784 µM), the MIC80 [12] was 4 µg/mL (≈ 6.27 µM) and the Activity [13] was 6.4%. The MFC [14] was 4 µg/mL (≈ 6.27 µM), the IC50 [15] was 6.25 µM and the MIC [16] was 4 µg/mL (≈ 6.27 µM). The MIC50 [17] was 0.5 µg/mL (≈ 0.784 µM), the MIC80 [17] was 4 µg/mL (≈ 6.27 µM) and the Activity [18] was 19.8%. For the same compound, the MFC [19] was 16 µg/mL (≈ 25.1 µM), the IC50 [20] was 32.5 µM and the CLint scaled [21] was 134 mL/min/kg. For the same compound, the Activity [22] was 61.3%, the Activity [23] was “Non-Toxic” and the MFC [24] was 16 µg/mL (≈ 25.1 µM). The Activity [25] was 24.4%, the Activity [26] was “Non-Toxic” and the Activity [27] was “Non-Toxic”. It also gave an Activity [28] of 16.7%, an MFC [29] of 16 µg/mL (≈ 25.1 µM) and an MIC50 [30] of 0.5 µg/mL (≈ 0.784 µM). The MIC80 [30] was 2 µg/mL (≈ 3.13 µM), the MIC50 [31] was 0.5 µg/mL (≈ 0.784 µM) and the MIC80 [31] was 4 µg/mL (≈ 6.27 µM). For the same compound, the Activity [32] was 2.4%, the MIC [33] was 2 µg/mL (≈ 3.13 µM) and the MIC50 [34] was 0.5 µg/mL (≈ 0.784 µM). The MIC80 [34] was 32 µg/mL (≈ 50.1 µM), the Activity [35] was 2.7% and the MIC [36] was 2 µg/mL (≈ 3.13 µM). It also gave an MFC [37] of 8 µg/mL (≈ 12.5 µM), an MIC50 [38] of 0.5 µg/mL (≈ 0.784 µM) and an MIC80 [38] of 4 µg/mL (≈ 6.27 µM). For the same compound, the Activity [39] was 8.4% and the Activity [40] was 2.2%.
